Laboratory results from US9962388B2, “Pyrrolopyrimidine compounds used as TLR7 agonist” (priority 2014, dated 2018).
Like-named read-outs stand apart in the source and are kept apart here.

What was measured:
Toll-like receptor 7 = Toll-like receptor 7 (Homo sapiens (Human), UniProt Q9NYK1); assay: Toll-like receptor 7 in vitro receptor binding activity screen (HEK-blue hTLR7 cell, alkaline phosphatase/Quanti-Blue readout); format: cell-based; conditions: HEK-blue hTLR7 cell, read-out: TLR7 EC50
Toll-like receptor 7, sequence (Q9NYK1 27-1049): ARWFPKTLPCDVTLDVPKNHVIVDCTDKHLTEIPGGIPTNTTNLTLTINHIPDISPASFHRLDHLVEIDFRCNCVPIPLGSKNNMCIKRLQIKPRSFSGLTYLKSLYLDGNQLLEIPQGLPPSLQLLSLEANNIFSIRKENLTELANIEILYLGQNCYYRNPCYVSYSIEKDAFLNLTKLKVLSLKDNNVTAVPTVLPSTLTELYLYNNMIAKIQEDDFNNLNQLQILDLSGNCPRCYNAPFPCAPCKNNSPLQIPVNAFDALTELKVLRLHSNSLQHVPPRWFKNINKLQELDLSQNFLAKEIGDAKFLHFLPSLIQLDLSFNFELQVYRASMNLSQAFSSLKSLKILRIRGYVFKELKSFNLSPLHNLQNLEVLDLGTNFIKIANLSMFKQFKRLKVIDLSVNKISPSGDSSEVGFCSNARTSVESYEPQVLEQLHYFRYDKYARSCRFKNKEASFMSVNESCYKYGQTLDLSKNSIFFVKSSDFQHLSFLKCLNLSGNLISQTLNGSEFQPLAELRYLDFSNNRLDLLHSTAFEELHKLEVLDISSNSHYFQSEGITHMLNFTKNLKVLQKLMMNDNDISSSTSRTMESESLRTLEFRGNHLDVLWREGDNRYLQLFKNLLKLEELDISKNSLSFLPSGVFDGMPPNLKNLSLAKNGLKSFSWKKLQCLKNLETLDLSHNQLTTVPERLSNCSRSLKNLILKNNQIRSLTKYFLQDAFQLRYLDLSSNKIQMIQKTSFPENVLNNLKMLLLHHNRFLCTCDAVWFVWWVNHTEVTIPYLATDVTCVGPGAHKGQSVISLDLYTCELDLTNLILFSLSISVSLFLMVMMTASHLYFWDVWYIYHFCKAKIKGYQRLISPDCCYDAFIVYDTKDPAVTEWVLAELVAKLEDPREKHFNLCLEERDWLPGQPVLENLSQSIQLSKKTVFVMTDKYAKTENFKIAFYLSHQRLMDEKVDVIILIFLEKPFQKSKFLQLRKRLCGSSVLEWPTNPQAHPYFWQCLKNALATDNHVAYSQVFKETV
Description: (§1) Toll-Like Receptor 7 and Toll-Like Receptor 8 In Vitro Receptor Binding Activity Screen
(§2) HEK-blue hTLR7 cell and HEK-blue hTLR8 cell (available from InvivoGen)
(§3) 1. Preparation of 96-well compound plate:
(§4) The compounds were gradient diluted with DMSO in 3-fold using liquid work station POD starting at a concentration of 10 mmol/L and 10 points were diluted (2nd column to 11th column, and each point was duplicated). At 12th column, 1 μL of 5 mg/mL positive compound R848 was added as positive control; and at 1st column, 1 μL of DMSO was added as negative control. Each well contained 1 μL of DMSO.
(§5) 2. The cells in culture flask were collected and the cell density was diluted to 250,000 cells/mL.
(§6) 3. 200 μL (50,000 cells/well) of cell suspension was added into prepared compound plate and the final concentration of DMSO in each well was 0.5%.
(§7) 4. The culture plates containing cells and the compounds were incubated in CO2 incubator for 24 h at 37° C., 5% CO2.
(§8) 5. After 24 h incubation, 20 μL of supernatant was removed from each well to a 96-well transparent assay plate. To each well of the assay plate was added 180 μL of Quanti-Blue reagent and the plate was incubated in an incubator at 37° C., 5% CO2 for 1 h.
(§9) 6. After 1 h, the content of alkaline phosphatase in 20 μL of supernatant was determined using Microplate Reader OD650.
(§10) 7. EC50 of each compound was obtained with Prism software.

[1] = test system: human peripheral blood mononuclear cells (PBMC); assay: Peripheral blood mononuclear cell assay (cytokine induction, CBA); format: cell-based; conditions: 24 h, human PBMC, 24 h; for minimal effective concentration: Homo sapiens, PBMC, read-out: INF-α MEC
Description: Peripheral Blood Mononuclear Cell Assay The purpose of this example is to determine the expression level of cytokines 24 h after stimulation to human peripheral blood mononuclear cells (PBMC) with the compounds. The cell supernatant was assayed without dilution and the levels of IFN-α and TNF-α were directly determined. The compound was firstly formulated into 20 mM DMSO stock solution and was gradient diluted with cell medium in 10-fold with the total number of 11 diluting points. The compounds in 9 diluting points (the highest concentration was 200 μmol/L) were added into 96-well plate with 50 μL in each well. Fresh human peripheral blood mononuclear cells were inoculated, with 150 μL in each well containing 450,000 cells. The cell culture plate was incubated in an incubator at 37° C., 5% CO2 for 24 h. After incubation, the culture plate was centrifuged at 1200 rpm for 5 min and the supernatant was collected and stored at −20° C. for determination. The determination of cytokine was performed using Cytometric Bead Array (CBA) of BD-Pharmingen on flow cytometer. Using the above determining method, the lowest drug concentration stimulating cytokine level which is over 3 times greater than the lowest detectable limit was designated as the MEC (Minimal Effective Concentration) value in the cytokine stimulating test.

duck hepatitis b virus = assay: In vivo pharmacodynamics in duckling model infected with hepatitis B virus; set-up: species or system Beijing ducks
Description: In Vivo Pharmacodynamics in Duckling Model Infected with Hepatitis B Virus
Experimental design and procedures: Beijing ducks of 1 day old were intravenously administered duck hepatitis b virus positive duck serum. After 7 days, the animals were administered according to grouping, 6 ducks in each group. Control group: normal saline. […] The samples were administered intragastricly: 20 mg/kg groups were administered once every third day (one administration every 3 days) and 5 mg/kg groups were administered once every day for 16 days. […] For control group infected with duck hepatitis b virus, solvent was used instead of drug. 7 days after infection, the blood was collected before administration (TO),8 days after administration (T8),16 days after administration (T16) and 3 day after ceasing administration (P3), and the duck serum was separated and frozen for storage. […] Duck serum DNA (DHBV-DNA) determination: different duck sera in a batch were determined for duck blood DHBV-DNA level with real time fluorescent quantitative PCR. Statistics analysis: paired and grouped analysis was used to calculate the significance of inhibition of drug on duck serum DHBV-DNA for assessment.

in vivo = conditions: male, SD, rat; for half-life: read-out: T½ (converted)
Description: 12 male SD rats were divided into 4 groups with 3 SD rats in each group. […] […] Each rat with oral administration was collected for whole blood samples which were prepared into plasma 15, 30 min and 1, 2, 4, 8, 24 h continuously after administration.

Toll-like receptor 8 = Toll-like receptor 8 (Homo sapiens (Human), UniProt Q9NR97); assay: Toll-like receptor 8 in vitro receptor binding activity screen (HEK-blue hTLR8 cell, alkaline phosphatase/Quanti-Blue readout); format: cell-based; conditions: HEK-blue hTLR8 cell, head-to-head test; read-out: TLR8 EC50
Toll-like receptor 8, sequence (Q9NR97 27-1041): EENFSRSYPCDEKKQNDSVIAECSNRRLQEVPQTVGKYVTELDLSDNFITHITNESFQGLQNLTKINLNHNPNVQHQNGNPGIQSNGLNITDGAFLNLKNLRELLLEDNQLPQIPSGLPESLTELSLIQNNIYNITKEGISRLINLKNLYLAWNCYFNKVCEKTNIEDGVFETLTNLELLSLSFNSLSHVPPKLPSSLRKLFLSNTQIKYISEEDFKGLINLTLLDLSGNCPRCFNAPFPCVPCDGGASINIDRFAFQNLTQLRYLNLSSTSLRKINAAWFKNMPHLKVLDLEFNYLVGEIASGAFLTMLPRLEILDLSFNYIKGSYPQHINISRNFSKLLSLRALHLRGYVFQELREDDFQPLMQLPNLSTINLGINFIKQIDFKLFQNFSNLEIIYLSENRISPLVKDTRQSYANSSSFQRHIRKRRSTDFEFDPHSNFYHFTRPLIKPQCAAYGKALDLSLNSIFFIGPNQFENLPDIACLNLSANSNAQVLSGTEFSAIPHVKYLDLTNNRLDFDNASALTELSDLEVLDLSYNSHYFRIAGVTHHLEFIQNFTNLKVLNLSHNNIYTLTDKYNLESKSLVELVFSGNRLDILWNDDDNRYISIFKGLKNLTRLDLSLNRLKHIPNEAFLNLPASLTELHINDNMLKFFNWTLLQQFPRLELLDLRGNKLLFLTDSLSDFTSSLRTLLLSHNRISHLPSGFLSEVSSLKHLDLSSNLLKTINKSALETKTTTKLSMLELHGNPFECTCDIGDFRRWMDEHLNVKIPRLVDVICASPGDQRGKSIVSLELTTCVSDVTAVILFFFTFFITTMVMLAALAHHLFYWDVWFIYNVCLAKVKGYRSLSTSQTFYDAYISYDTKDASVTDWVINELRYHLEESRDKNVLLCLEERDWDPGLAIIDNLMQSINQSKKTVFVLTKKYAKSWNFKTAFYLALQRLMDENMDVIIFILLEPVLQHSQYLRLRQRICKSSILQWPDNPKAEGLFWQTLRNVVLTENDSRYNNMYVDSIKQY
Description: as §1, §2, §3, §4, §5, §6, §7, §8, §9, §10

[2] = Minimal Effective Concentration

For CCCCOc1nc(N)c2[nH]cc(Cc3ccc4c(c3)CN(C)CC4)c2n1 [Example 29, 2-butoxy-7-((2-methyl-1,2,3,4-tetrahydroisoquinoline-7-yl)methyl)-5H-pyrrolo[3,2-d]pyrimidine-4-amine], which EC50 (Toll-like receptor 7; 24 h) is on record?
Its EC50 is 100 to 1000 nM.

And the minimal effective concentration [1, 2]?
Its minimal effective concentration is 1e-05 to 0.001 µM.

With CCCCOc1nc(N)c2[nH]cc(Cc3ccc4c(c3)CN(CC)CC4)c2n1 [Example 30, 2-butoxy-7-((2-ethyl-1,2,3,4-tetrahydroisoquinoline-7-yl)methyl)-5H-pyrrolo[3,2-d]pyrimidine-4-amine] as the compound, how does the EC50 (Toll-like receptor 7; 24 h) read?
The EC50 was 100 to 1000 nM.

And the minimal effective concentration [1, 2]?
The minimal effective concentration was 0.001 to 0.01 µM.

For CCCCOc1nc(N)c2[nH]cc(Cc3ccc4c(c3)CN(C(C)C)CC4)c2n1 [Example 31, 2-butoxy-7-((2-isopropyl-1,2,3,4-tetrahydroisoquinoline-7-yl)methyl)-5H-pyrrolo[3,2-d]pyrimidine-4-amine], which EC50 (Toll-like receptor 7; 24 h) is on record?
Its EC50 is 100 to 1000 nM.

And the minimal effective concentration [1, 2]?
The minimal effective concentration was 0.001 to 0.01 µM.

For CCCCOc1nc(N)c2[nH]c(C#N)c(Cc3ccc(CN4CCCC4)cc3)c2n1 [Example 42, 4-amino-2-butoxy-7-(4-(pyrrolidine-1-ylmethyl)benzyl)-5H-pyrrolo[3,2-d]pyrimidine-6-carbonitrile], which EC50 (Toll-like receptor 7; 24 h) is on record?
Its EC50 is 1 to 100 nM.

And the minimal effective concentration [1, 2]?
Its minimal effective concentration is 1e-05 to 0.001 µM.

With CCCCOc1nc(N)c2c(n1)N(Cc1cccc(CN3CCCC3)c1)CC(=O)N2 [GS-9620, reference compound] as the compound, how does the EC50 (Toll-like receptor 7; head-to-head test) read?
The EC50 was 517 nM.

What about the “Duck serum HBV-DNA inhibition %” value (duck hepatitis b virus; 5 mg/kg intragastric once every day for 16 days, P3) of the same compound?
The value was 70.60 ± 47.66%.

What about the “Duck serum HBV-DNA inhibition %” value (duck hepatitis b virus; 5 mg/kg intragastric once every day for 16 days, T8) of the same compound?
The value was 98.66 ± 2.75 %.

What about the “Duck serum HBV-DNA inhibition %” value (duck hepatitis b virus; 5 mg/kg intragastric once every day for 16 days, T16) of the same compound?
Its value is 78.02 ± 51.69%.

And the “Duck serum HBV-DNA inhibition %” value (duck hepatitis b virus; 20 mg/kg intragastric once every third day, P3 (3 days after ceasing administration))?
Its value is −132.97 ± 352.35%.

And the “Duck serum HBV-DNA inhibition %” value (duck hepatitis b virus; 20 mg/kg intragastric once every third day, T8 (8 days after administration))?
Its value is 99.13 ± 1.83 %.

And the “Duck serum HBV-DNA inhibition %” value (duck hepatitis b virus; 20 mg/kg intragastric once every third day, T16 (16 days after administration))?
Its value is 98.26 ± 1.50 %.

And the “rebound of HBV-DNA replication” value (duck hepatitis b virus; 20 mg/kg one administration every third day, 3 days after ceasing administration)?
The value was “rebound of HBV-DNA replication”.

What about the half-life (in vivo; 1 mg/kg, IV 1 mpk) of the same compound?
Its half-life is 2.57 h.

What about the half-life (in vivo; 5 mg/kg, PO 5 mpk) of the same compound?
Its half-life is 2.24 h.

And the AUC(0-inf) (in vivo; iv, 1 mg/kg)?
The AUC(0-inf) was 0.201 µM·h.

What about the AUC(0-t) (in vivo; iv, 1 mg/kg) of the same compound?
The AUC(0-t) was 0.185 µM·h.

What about the Cmax (in vivo; iv, 1 mg/kg) of the same compound?
Its Cmax is 220 nM.

What about the Vd (in vivo; iv, 1 mg/kg) of the same compound?
The Vd was 32.8 L/kg.

And the clearance (in vivo; iv, 1 mg/kg)?
Its clearance is 205 mL/min/kg.

And the Mean plasma drug concentration (in vivo; iv, 1 mg/kg, 0.083 h)?
Its Mean plasma drug concentration is 170 nM.

And the Mean plasma drug concentration (in vivo; iv, 1 mg/kg, 0.25 h)?
The Mean plasma drug concentration was 102 nM.

What about the Mean plasma drug concentration (in vivo; iv, 1 mg/kg, 0.5 h) of the same compound?
Its Mean plasma drug concentration is 65.4 nM.

And the Mean plasma drug concentration (in vivo; iv, 1 mg/kg, 1 h)?
Its Mean plasma drug concentration is 48.1 nM.

And the Mean plasma drug concentration (in vivo; iv, 1 mg/kg, 2 h)?
Its Mean plasma drug concentration is 21.6 nM.

And the Mean plasma drug concentration (in vivo; iv, 1 mg/kg, 4 h)?
The Mean plasma drug concentration was 13 nM.

What about the Mean plasma drug concentration (in vivo; iv, 1 mg/kg, 8 h) of the same compound?
The Mean plasma drug concentration was 4.17 nM.

And the AUC(0-inf) (in vivo; po, 5 mg/kg)?
Its AUC(0-inf) is 0.359 µM·h.

And the AUC(0-t) (in vivo; po, 5 mg/kg)?
Its AUC(0-t) is 0.316 µM·h.

What about the Cmax (in vivo; po, 5 mg/kg) of the same compound?
Its Cmax is 164 nM.

What about the Mean plasma drug concentration (in vivo; po, 5 mg/kg, 0.25 h) of the same compound?
Its Mean plasma drug concentration is 56.3 nM.

What about the Mean plasma drug concentration (in vivo; po, 5 mg/kg, 0.5 h) of the same compound?
Its Mean plasma drug concentration is 33.2 nM.

And the Mean plasma drug concentration (in vivo; po, 5 mg/kg, 1 h)?
The Mean plasma drug concentration was 83.4 nM.

What about the Mean plasma drug concentration (in vivo; po, 5 mg/kg, 2 h) of the same compound?
Its Mean plasma drug concentration is 136 nM.

What about the Mean plasma drug concentration (in vivo; po, 5 mg/kg, 4 h) of the same compound?
The Mean plasma drug concentration was 16.7 nM.

What about the Mean plasma drug concentration (in vivo; po, 5 mg/kg, 8 h) of the same compound?
Its Mean plasma drug concentration is 9.49 nM.

And the EC50 (Toll-like receptor 8)?
Its EC50 is 7870 nM.

What about the minimal effective concentration ([1]; head-to-head test) of the same compound?
Its minimal effective concentration is 0.05 µM.

And the “TNF-α MEC” value ([1]; head-to-head test)?
The value was 500 nM.
